# From PubChem BioAssay (NCI)
#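 Cells were grown in 96-well plates and exposed to each compound for 48 hours at five concentrations; endpoints were interpolated linearly between bracketing concentrations, or set to the highest concentration if not reached. TGI marks complete inhibition of growth.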
# Experiments:
# Experiment in all cases: NCI anticancer screen, dose series, 48 h
# 786-0 renal = system: 786-0 renal
# A549 NSCLC = system: A549 NSCLC
# CAKI-1 renal = system: CAKI-1 renal
# CCRF-CEM leukemia = system: CCRF-CEM leukemia
# COLO 205 colon = system: COLO 205 colon
# DU-145 prostate = system: DU-145 prostate
# EKVX NSCLC = system: EKVX NSCLC
# HCC-2998 colon = system: HCC-2998 colon
# HCT-15 colon = system: HCT-15 colon
# HL-60(TB) leukemia = system: HL-60(TB) leukemia
# HOP-62 NSCLC = system: HOP-62 NSCLC
# HT29 colon = system: HT29 colon
# IGROV1 ovarian = system: IGROV1 ovarian
# K-562 leukemia = system: K-562 leukemia
# KM12 colon = system: KM12 colon
# LOX IMVI melanoma = system: LOX IMVI melanoma
# M14 melanoma = system: M14 melanoma
# MALME-3M melanoma = system: MALME-3M melanoma
# MCF7 breast = system: MCF7 breast
# MDA-MB-231 breast = system: MDA-MB-231 breast
# MDA-N = system: MDA-N
# MOLT-4 leukemia = system: MOLT-4 leukemia
# NCI-H23 lung = system: NCI-H23 lung
# OVCAR-8 ovarian = system: OVCAR-8 ovarian
# PC-3 prostate = system: PC-3 prostate
# RPMI-8226 leukemia = system: RPMI-8226 leukemia
# RXF 393 renal = system: RXF 393 renal
# SF-295 CNS = system: SF-295 CNS
# SK-MEL-28 melanoma = system: SK-MEL-28 melanoma
# SK-MEL-5 melanoma = system: SK-MEL-5 melanoma
# SK-OV-3 ovarian = system: SK-OV-3 ovarian
# SN12C renal = system: SN12C renal
# SNB-75 CNS = system: SNB-75 CNS
# SR leukemia = system: SR leukemia
# SW-620 colon = system: SW-620 colon
# T-47D breast = system: T-47D breast
# TK-10 renal = system: TK-10 renal
# UACC-257 melanoma = system: UACC-257 melanoma
# UACC-62 melanoma = system: UACC-62 melanoma
# A498 renal = system: A498 renal
# ACHN renal = system: ACHN renal
# HCT-116 colon = system: HCT-116 colon
# HOP-92 NSCLC = system: HOP-92 NSCLC
# HS 578T breast = system: HS 578T breast
# MDA-MB-435 = system: MDA-MB-435
# NCI-H226 lung = system: NCI-H226 lung
# NCI-H460 lung = system: NCI-H460 lung
# NCI/ADR-RES ovarian = system: NCI/ADR-RES ovarian
# OVCAR-3 ovarian = system: OVCAR-3 ovarian
# OVCAR-4 ovarian = system: OVCAR-4 ovarian
# OVCAR-5 ovarian = system: OVCAR-5 ovarian
# SF-268 CNS = system: SF-268 CNS
# SF-539 CNS = system: SF-539 CNS
# SK-MEL-2 melanoma = system: SK-MEL-2 melanoma
# SNB-19 CNS = system: SNB-19 CNS
# UO-31 renal = system: UO-31 renal
# U251 CNS = system: U251 CNS
compound,measurement,setting,value
CC(=O)OCC12CCC3C4(C)CCCC(C)(C)C4CCC3(C)C1CC(C1=CC(=O)OC1O)O2 (stereo not drawn),TGI,786-0 renal,2.28 µM
same,TGI,A549 NSCLC,> 10 µM
same,TGI,CAKI-1 renal,2.81 µM
same,TGI,CCRF-CEM leukemia,> 10 µM
same,TGI,COLO 205 colon,4.18 µM
same,TGI,DU-145 prostate,6.64 µM
same,TGI,EKVX NSCLC,5.92 µM
same,TGI,HCC-2998 colon,3.67 µM
same,TGI,HCT-15 colon,2.5 µM
same,TGI,HL-60(TB) leukemia,2.76 µM
same,TGI,HOP-62 NSCLC,6.45 µM
same,TGI,HT29 colon,3.58 µM
same,TGI,IGROV1 ovarian,3.6 µM
same,TGI,K-562 leukemia,4.72 µM
same,TGI,KM12 colon,3.54 µM
same,TGI,LOX IMVI melanoma,2.54 µM
same,TGI,M14 melanoma,2.96 µM
same,TGI,MALME-3M melanoma,2.44 µM
same,TGI,MCF7 breast,> 10 µM
same,TGI,MDA-MB-231 breast,4.44 µM
same,TGI,MDA-N,2.89 µM
same,TGI,MOLT-4 leukemia,0.797 µM
same,TGI,NCI-H23 lung,3.86 µM
same,TGI,OVCAR-8 ovarian,3.91 µM
same,TGI,PC-3 prostate,2.63 µM
same,TGI,RPMI-8226 leukemia,> 10 µM
same,TGI,RXF 393 renal,3.82 µM
same,TGI,SF-295 CNS,5.56 µM
same,TGI,SK-MEL-28 melanoma,3.44 µM
same,TGI,SK-MEL-5 melanoma,3.44 µM
same,TGI,SK-OV-3 ovarian,6.32 µM
same,TGI,SN12C renal,3.09 µM
same,TGI,SNB-75 CNS,3.32 µM
same,TGI,SR leukemia,0.846 µM
same,TGI,SW-620 colon,6.47 µM
same,TGI,T-47D breast,> 10 µM
same,TGI,TK-10 renal,3.31 µM
same,TGI,UACC-257 melanoma,3.63 µM
same,TGI,UACC-62 melanoma,4.82 µM
Cc1cc(O)cc(O)c1C(=O)O[C@]1(C)C(=O)C=C2C=C(/C=C/C(=O)O)OC=C2C1=O,TGI,786-0 renal,> 100 µM
same,TGI,A498 renal,> 100 µM
same,TGI,A549 NSCLC,> 100 µM
same,TGI,ACHN renal,> 100 µM
same,TGI,CAKI-1 renal,> 100 µM
same,TGI,CCRF-CEM leukemia,88.3 µM
same,TGI,COLO 205 colon,> 100 µM
same,TGI,DU-145 prostate,> 100 µM
same,TGI,EKVX NSCLC,> 100 µM
same,TGI,HCC-2998 colon,> 100 µM
same,TGI,HCT-116 colon,> 100 µM
same,TGI,HCT-15 colon,> 100 µM
same,TGI,HL-60(TB) leukemia,75.1 µM
same,TGI,HOP-62 NSCLC,> 100 µM
same,TGI,HOP-92 NSCLC,> 100 µM
same,TGI,HS 578T breast,> 100 µM
same,TGI,HT29 colon,> 100 µM
same,TGI,IGROV1 ovarian,> 100 µM
same,TGI,K-562 leukemia,> 100 µM
same,TGI,KM12 colon,> 100 µM
same,TGI,LOX IMVI melanoma,> 100 µM
same,TGI,M14 melanoma,> 100 µM
same,TGI,MALME-3M melanoma,> 100 µM
same,TGI,MCF7 breast,> 100 µM
same,TGI,MDA-MB-231 breast,> 100 µM
same,TGI,MDA-MB-435,> 100 µM
same,TGI,MDA-N,> 100 µM
same,TGI,MOLT-4 leukemia,> 100 µM
same,TGI,NCI-H226 lung,> 100 µM
same,TGI,NCI-H23 lung,> 100 µM
same,TGI,NCI-H460 lung,> 100 µM
same,TGI,NCI/ADR-RES ovarian,> 100 µM
same,TGI,OVCAR-3 ovarian,> 100 µM
same,TGI,OVCAR-4 ovarian,> 100 µM
same,TGI,OVCAR-5 ovarian,> 100 µM
same,TGI,OVCAR-8 ovarian,> 100 µM
same,TGI,PC-3 prostate,> 100 µM
same,TGI,RPMI-8226 leukemia,> 100 µM
same,TGI,RXF 393 renal,> 100 µM
same,TGI,SF-268 CNS,> 100 µM
same,TGI,SF-295 CNS,> 100 µM
same,TGI,SF-539 CNS,> 100 µM
same,TGI,SK-MEL-2 melanoma,> 100 µM
same,TGI,SK-MEL-28 melanoma,> 100 µM
same,TGI,SK-MEL-5 melanoma,> 100 µM
same,TGI,SK-OV-3 ovarian,> 100 µM
same,TGI,SN12C renal,> 100 µM
same,TGI,SNB-19 CNS,> 100 µM
same,TGI,SNB-75 CNS,> 100 µM
same,TGI,SR leukemia,99 µM
same,TGI,SW-620 colon,> 100 µM
same,TGI,T-47D breast,> 100 µM
same,TGI,TK-10 renal,> 100 µM
same,TGI,UACC-257 melanoma,> 100 µM
same,TGI,UACC-62 melanoma,> 100 µM
same,TGI,UO-31 renal,> 100 µM
O=C1/C(=C/c2ccccc2)NC(=S)N1CN1CCCCC1,TGI,786-0 renal,> 100 µM
same,TGI,A498 renal,> 100 µM
same,TGI,A549 NSCLC,> 100 µM
same,TGI,ACHN renal,> 100 µM
same,TGI,CCRF-CEM leukemia,> 100 µM
same,TGI,COLO 205 colon,> 100 µM
same,TGI,DU-145 prostate,> 100 µM
same,TGI,EKVX NSCLC,> 100 µM
same,TGI,HCT-116 colon,> 100 µM
same,TGI,HCT-15 colon,> 100 µM
same,TGI,HOP-62 NSCLC,> 100 µM
same,TGI,HOP-92 NSCLC,> 100 µM
same,TGI,HS 578T breast,> 100 µM
same,TGI,HT29 colon,> 100 µM
same,TGI,IGROV1 ovarian,> 100 µM
same,TGI,K-562 leukemia,> 100 µM
same,TGI,KM12 colon,> 100 µM
same,TGI,LOX IMVI melanoma,> 100 µM
same,TGI,M14 melanoma,> 100 µM
same,TGI,MCF7 breast,> 100 µM
same,TGI,MDA-MB-231 breast,> 100 µM
same,TGI,MDA-MB-435,> 100 µM
same,TGI,MDA-N,> 100 µM
same,TGI,MOLT-4 leukemia,> 100 µM
same,TGI,NCI-H226 lung,> 100 µM
same,TGI,NCI-H23 lung,> 100 µM
same,TGI,NCI/ADR-RES ovarian,> 100 µM
same,TGI,OVCAR-3 ovarian,> 100 µM
same,TGI,OVCAR-4 ovarian,92.6 µM
same,TGI,OVCAR-5 ovarian,> 100 µM
same,TGI,OVCAR-8 ovarian,> 100 µM
same,TGI,PC-3 prostate,> 100 µM
same,TGI,RPMI-8226 leukemia,> 100 µM
same,TGI,SF-268 CNS,> 100 µM
same,TGI,SF-295 CNS,> 100 µM
same,TGI,SK-MEL-2 melanoma,> 100 µM
same,TGI,SK-MEL-28 melanoma,> 100 µM
same,TGI,SK-MEL-5 melanoma,> 100 µM
same,TGI,SK-OV-3 ovarian,> 100 µM
same,TGI,SN12C renal,> 100 µM
same,TGI,SNB-19 CNS,> 100 µM
same,TGI,SNB-75 CNS,> 100 µM
same,TGI,SR leukemia,> 100 µM
same,TGI,SW-620 colon,> 100 µM
same,TGI,U251 CNS,> 100 µM
same,TGI,UACC-257 melanoma,> 100 µM
same,TGI,UACC-62 melanoma,> 100 µM
same,TGI,UO-31 renal,> 100 µM
